Several values for one entry are separate records, joined by “and”; a condition that tells them apart may be missing. Equal values may be shown once. Toxic doses and inconclusive results are not listed. Cut-off read from the data, not from the text of the source: active = T/C of 150% or more; inactive = T/C below 125%.
Tested on: L1210 leukemia ip in BDF1 mice, survival T/C
Experiment: NCI In Vivo Anticancer Drug Screen. Data for tumor model L1210 Leukemia (intraperitoneal) in B6D2F1 (BDF1) mice
Conditions: endpoint: mean survival time, higher = longer survival
Procedure, shortened: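 Transplanted-tumor mice were given test agent; controls received vehicle only. Survival readings from the two groups were divided (treated over control).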

[1] = dose: 50.0 mg/kg/injection, schedule: Q04DX003 (ip), vehicle: saline with Tween-80
[2] = dose: 100.0 mg/kg/injection, schedule: Q04DX003 (ip), vehicle: saline with Tween-80
[3] = dose: 200.0 mg/kg/injection, schedule: Q04DX003 (ip), vehicle: saline with Tween-80
[4] = dose: 100.0 mg/kg/injection, schedule: Q04DX002 (ip), vehicle: saline with Tween-80
[5] = dose: 100.0 mg/kg/injection, schedule: Q01DX009 (ip), vehicle: saline with Tween-80
[6] = dose: 200.0 mg/kg/injection, schedule: Q01DX009 (ip), vehicle: saline with Tween-80
[7] = dose: 12.5 mg/kg/injection, schedule: Q01DX009 (ip), vehicle: saline
[8] = dose: 25.0 mg/kg/injection, schedule: Q01DX009 (ip), vehicle: saline
[9] = dose: 50.0 mg/kg/injection, schedule: Q01DX009 (ip), vehicle: saline
[10] = dose: 75.0 mg/kg/injection, schedule: Q01DX001 (ip), vehicle: carboxymethylcellulose (CMC)
[11] = dose: 150.0 mg/kg/injection, schedule: Q01DX001 (ip), vehicle: carboxymethylcellulose (CMC)
[12] = dose: 100.0 mg/kg/injection, schedule: Q01DX009 (ip), vehicle: Klucel (hydroxypropylcellulose) (HPC)

Measured: T/C

Nc1csc(N)n1
inactive: dose: 75.0 mg/kg/injection, schedule: Q04DX003 (ip), vehicle: saline 107 % of control | dose: 100.0 mg/kg/injection, schedule: Q04DX003 (ip), vehicle: saline 97 % of control | dose: 150.0 mg/kg/injection, schedule: Q04DX003 (ip), vehicle: saline 105 % of control | dose: 200.0 mg/kg/injection, schedule: Q04DX003 (ip), vehicle: saline 96 % of control | dose: 300.0 mg/kg/injection, schedule: Q04DX003 (ip), vehicle: saline 94 % of control | dose: 400.0 mg/kg/injection, schedule: Q04DX003 (ip), vehicle: saline 103 % of control

COc1ccc(CCCCCl)cc1
inactive: dose: 100.0 mg/kg/injection, schedule: Q01DX001 (ip), vehicle: acetone 95 % of control | dose: 200.0 mg/kg/injection, schedule: Q01DX001 (ip), vehicle: acetone 95 % of control | dose: 400.0 mg/kg/injection, schedule: Q01DX001 (ip), vehicle: acetone 96 % of control

C1CCC2(CC1)CCNCC2
inactive: dose: 50.0 mg/kg/injection, schedule: Q01DX001 (ip), vehicle: saline 102 % of control

COc1ccc(C(=O)CC2CCCC(CC(=O)c3ccc(OC)cc3)N2C)cc1 (centres undefined)
inactive: dose: 75.0 mg/kg/injection, schedule: Q01DX001 (ip), vehicle: other 98 % of control | dose: 150.0 mg/kg/injection, schedule: Q01DX001 (ip), vehicle: other 90 % of control

CCC1(CC)C(=O)C=CNC1=O
inactive: [1] 95 % of control | [2] 107 % of control | [3] 102 % of control

CC1(C)C/C(=N/O)C/C(=N\O)C1
inactive: dose: 25.0 mg/kg/injection, schedule: Q04DX003 (ip), vehicle: Klucel (hydroxypropylcellulose) (HPC) 95 % of control | dose: 50.0 mg/kg/injection, schedule: Q04DX003 (ip), vehicle: Klucel (hydroxypropylcellulose) (HPC) 96 % of control

CCCCCCCCCCCCCCCC[As](=O)(O)O
inactive: dose: 100.0 mg/kg/injection, schedule: Q04DX003 (ip), vehicle: Klucel (hydroxypropylcellulose) (HPC) 121 % of control | dose: 200.0 mg/kg/injection, schedule: Q04DX003 (ip), vehicle: Klucel (hydroxypropylcellulose) (HPC) 93 % of control | dose: 400.0 mg/kg/injection, schedule: Q04DX003 (ip), vehicle: Klucel (hydroxypropylcellulose) (HPC) 90 % of control

COC1C=COC2(C)Oc3c(C)c(O)c4c(c3C2=O)/C(=N/C2CCC(O)OC2C)C=C(NC(=O)/C(C)=C\C(=O)C2CC2C(O)C(C)C(O)C(C)C(OC(C)=O)C1C)C4=O (centres undefined)
inactive: dose: 50.0 mg/kg/injection, schedule: Q04DX002 (ip), vehicle: saline with Tween-80 95 % of control | [4] 95 % of control

Cc1cc(C)c(NC(=O)c2ccccc2Cl)c(C)c1
inactive: [5] 93 % of control | [6] 93 % of control | dose: 400.0 mg/kg/injection, schedule: Q01DX009 (ip), vehicle: saline with Tween-80 97 % of control

CCOC(=O)NCC(CCCN1CCOCC1)(c1cccc2ccccc12)C(C)CC (centres undefined)
inactive: dose: 100.0 mg/kg/injection, schedule: Q04DX002 (ip), vehicle: saline 102 % of control | dose: 200.0 mg/kg/injection, schedule: Q04DX002 (ip), vehicle: saline 106 % of control | dose: 400.0 mg/kg/injection, schedule: Q04DX002 (ip), vehicle: saline 97 % of control

CON(C)CC(Cl)c1ccccc1 (centres undefined)
inactive: dose: 6.25 mg/kg/injection, schedule: Q01DX009 (ip), vehicle: saline 100 % of control | dose: 6.25 mg/kg/injection, schedule: Q04DX003 (ip), vehicle: saline with Tween-80 98 % of control | [7] 100 % of control | dose: 12.5 mg/kg/injection, schedule: Q04DX003 (ip), vehicle: saline with Tween-80 96 % of control | [8] 92 % of control | dose: 25.0 mg/kg/injection, schedule: Q04DX003 (ip), vehicle: saline with Tween-80 104 % of control | [9] 92 % of control | [1] 96 % of control and 98 % of control

CC1CC(C)(C)N=C(C(C)C)O1 (centres undefined)
inactive: [7] 100 % of control | [8] 102 % of control | [9] 98 % of control | [1] 95 % of control | dose: 100.0 mg/kg/injection, schedule: Q01DX009 (ip), vehicle: saline 110 % of control | [2] 93 % of control

c1ccc2c(c1)cnn1cnnc21
inactive: [10] 115 % of control | [11] 97 % of control

CN(C(=N)N)c1ccc(C(=O)Oc2ccc([N+](=O)[O-])cc2)cc1
inactive: dose: 50.0 mg/kg/injection, schedule: Q01DX009 (ip), vehicle: water 90 % of control | dose: 100.0 mg/kg/injection, schedule: Q01DX009 (ip), vehicle: water 97 % of control and 105 % of control | dose: 100.0 mg/kg/injection, schedule: Q04DX003 (ip), vehicle: water 103 % of control | dose: 200.0 mg/kg/injection, schedule: Q01DX009 (ip), vehicle: water 96 % of control and 100 % of control | dose: 200.0 mg/kg/injection, schedule: Q04DX003 (ip), vehicle: water 100 % of control

COc1ccc(NC(=S)Nc2ccc(Cc3ccc(NC(=S)Nc4ccc(OC)cc4)cc3)cc2)cc1
inactive: [4] 101 % of control | dose: 200.0 mg/kg/injection, schedule: Q04DX002 (ip), vehicle: saline with Tween-80 95 % of control | dose: 400.0 mg/kg/injection, schedule: Q04DX002 (ip), vehicle: saline with Tween-80 88 % of control

CC(=O)Nc1cccc(NC(C)=O)n1
inactive: [2] 94 % of control | [3] 104 % of control | dose: 400.0 mg/kg/injection, schedule: Q04DX003 (ip), vehicle: saline with Tween-80 100 % of control

O=S(Cc1ccccc1)C(Cl)(Cl)c1ccccc1 (centres undefined)
inactive: dose: 100.0 mg/kg/injection, schedule: Q01DX001 (ip), vehicle: other 96 % of control | dose: 200.0 mg/kg/injection, schedule: Q01DX001 (ip), vehicle: other 98 % of control | dose: 400.0 mg/kg/injection, schedule: Q01DX001 (ip), vehicle: other 102 % of control

CC(C)/C=C/C1(C(C)C)C(=O)NC(=O)NC1=O
inactive: [10] 94 % of control | [11] 94 % of control

Brc1cccc2ccccc12
inactive: dose: 25.0 mg/kg/injection, schedule: Q01DX009 (ip), vehicle: Klucel (hydroxypropylcellulose) (HPC) 89 % of control | dose: 50.0 mg/kg/injection, schedule: Q01DX009 (ip), vehicle: Klucel (hydroxypropylcellulose) (HPC) 86 % of control | [12] 99 % of control | dose: 100.0 mg/kg/injection, schedule: Q04DX002 (ip), vehicle: Klucel (hydroxypropylcellulose) (HPC) 112 % of control | dose: 200.0 mg/kg/injection, schedule: Q04DX002 (ip), vehicle: Klucel (hydroxypropylcellulose) (HPC) 105 % of control | dose: 400.0 mg/kg/injection, schedule: Q04DX002 (ip), vehicle: Klucel (hydroxypropylcellulose) (HPC) 119 % of control

Cc1cc(Cl)ccc1NC(=O)COc1ccc(Cl)cc1Cl
inactive: dose: 50.0 mg/kg/injection, schedule: Q01DX009 (ip), vehicle: saline with Tween-80 87 % of control | [5] 87 % of control | [2] 93 % of control | [6] 96 % of control | [3] 91 % of control

COc1ccc([N+](=O)[O-])cc1NC(=O)Nc1ccc(I)cc1
inactive: [12] 103 % of control | dose: 200.0 mg/kg/injection, schedule: Q01DX009 (ip), vehicle: Klucel (hydroxypropylcellulose) (HPC) 95 % of control | dose: 400.0 mg/kg/injection, schedule: Q01DX009 (ip), vehicle: Klucel (hydroxypropylcellulose) (HPC) 103 % of control
